T/C data for 21 compounds are collected here from PubChem BioAssay AID248 (DTP/NCI, 2004).

This assay has as its system L1210 leukemia ip in BDF1 mice, survival T/C. Nature of the assay: NCI In Vivo Anticancer Drug Screen. Data for tumor model L1210 Leukemia (intraperitoneal) in B6D2F1 (BDF1) mice. Conditions: endpoint: mean survival time, higher = longer survival. A digest of the protocol: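 Transplanted-tumor mice were given test agent; controls received vehicle only. Survival readings from the two groups were divided (treated over control).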

Setting [1] is: dose: 25.0 mg/kg/injection, schedule: Q01DX009 (ip), vehicle: saline.
[2] abbreviates: dose: 50.0 mg/kg/injection, schedule: Q01DX009 (ip), vehicle: saline.
[3] abbreviates: dose: 100.0 mg/kg/injection, schedule: Q01DX001 (ip), vehicle: saline.
Where [4] appears, read: dose: 50.0 mg/kg/injection, schedule: Q04DX002 (ip), vehicle: Klucel (hydroxypropylcellulose) (HPC).
Setting [5] is: dose: 100.0 mg/kg/injection, schedule: Q04DX002 (ip), vehicle: Klucel (hydroxypropylcellulose) (HPC).
[6] abbreviates: dose: 200.0 mg/kg/injection, schedule: Q01DX001 (ip), vehicle: saline.
Setting [7] is: dose: 200.0 mg/kg/injection, schedule: Q04DX002 (ip), vehicle: Klucel (hydroxypropylcellulose) (HPC).
Where [8] appears, read: dose: 400.0 mg/kg/injection, schedule: Q01DX001 (ip), vehicle: saline.
Where [9] appears, read: dose: 100.0 mg/kg/injection, schedule: Q01DX001 (ip), vehicle: saline with Tween-80.
Where [10] appears, read: dose: 200.0 mg/kg/injection, schedule: Q01DX001 (ip), vehicle: saline with Tween-80.
Setting [11] is: dose: 400.0 mg/kg/injection, schedule: Q01DX001 (ip), vehicle: saline with Tween-80.
Setting [12] is: dose: 100.0 mg/kg/injection, schedule: Q01DX009 (ip), vehicle: Klucel (hydroxypropylcellulose) (HPC).
[13] abbreviates: dose: 200.0 mg/kg/injection, schedule: Q01DX009 (ip), vehicle: Klucel (hydroxypropylcellulose) (HPC).
[14] abbreviates: dose: 50.0 mg/kg/injection, schedule: Q01DX009 (ip), vehicle: saline with Tween-80.
The mark [15] stands for this setting: dose: 100.0 mg/kg/injection, schedule: Q01DX009 (ip), vehicle: saline with Tween-80.
Where [16] appears, read: dose: 200.0 mg/kg/injection, schedule: Q01DX009 (ip), vehicle: saline with Tween-80.
The mark [17] stands for this setting: dose: 400.0 mg/kg/injection, schedule: Q01DX009 (ip), vehicle: Klucel (hydroxypropylcellulose) (HPC).

“And” between values parts separate entries of the source, which are not always exact repeats. Equal entries are not always repeated. Inconclusive results and toxic doses are left out.

On to `COc1cc(NS(C)(=O)=O)ccc1Nc1c2cccc(C)c2nc2c(C)cccc12`, for which the T/C is 117 % of control (dose: 6.25 mg/kg/injection, schedule: Q01DX009 (ip), vehicle: saline); 103 % of control (dose: 6.25 mg/kg/injection, schedule: Q01DX009 (sc), vehicle: Klucel (hydroxypropylcellulose) (HPC)); 170 % of control (dose: 12.5 mg/kg/injection, schedule: Q01DX009 (ip), vehicle: water); 104 % of control (dose: 12.5 mg/kg/injection, schedule: Q01DX009 (sc), vehicle: Klucel (hydroxypropylcellulose) (HPC)); 175 % of control under setting [1]; 201 % of control (dose: 25.0 mg/kg/injection, schedule: Q01DX009 (ip), vehicle: water). Besides, the T/C (dose: 25.0 mg/kg/injection, schedule: Q01DX009 (sc), vehicle: Klucel (hydroxypropylcellulose) (HPC)) was 112 % of control; the T/C (dose: 50.0 mg/kg/injection, schedule: Q01DX001 (ip), vehicle: saline) was 115 % of control; the T/C (dose: 50.0 mg/kg/injection, schedule: Q01DX001 (ip), vehicle: water) was 167 % of control; the T/C under setting [2] is 166 % of control; the T/C (dose: 50.0 mg/kg/injection, schedule: Q01DX009 (sc), vehicle: Klucel (hydroxypropylcellulose) (HPC)) is 111 % of control; the T/C under setting [3] was 115 % of control. Further, the T/C runs as follows: (dose: 100.0 mg/kg/injection, schedule: Q01DX001 (ip), vehicle: water) 213 % of control; (dose: 100.0 mg/kg/injection, schedule: Q01DX009 (ip), vehicle: water) 107 % of control; (dose: 200.0 mg/kg/injection, schedule: Q01DX001 (ip), vehicle: water) 224 % of control; (dose: 400.0 mg/kg/injection, schedule: Q01DX001 (ip), vehicle: water) 102 % of control.

As for `Cc1cc(C)c(NC(C)C)c(C)c1N`, the T/C under setting [4] was 92 % of control; the T/C under setting [3] is 104 % of control; the T/C under setting [5] was 92 % of control; the T/C under setting [6] was 92 % of control; the T/C under setting [7] was 95 % of control; the T/C under setting [8] was 93 % of control.

For `CC(C)(C)OP(O)(=S)OC(C)(C)C`, the T/C (dose: 100.0 mg/kg/injection, schedule: Q04DX002 (ip), vehicle: saline) is 94 % of control; the T/C (dose: 200.0 mg/kg/injection, schedule: Q04DX002 (ip), vehicle: saline) is 113 % of control; the T/C (dose: 400.0 mg/kg/injection, schedule: Q04DX002 (ip), vehicle: saline) was 110 % of control.

For the compound `ON=C1CCC(=NO)CC1`, the T/C by setting is: under setting [9], 95 % of control; under setting [10], 98 % of control; under setting [11], 103 % of control.

Regarding `O=[N+]([O-])c1ccc(/C=C/c2ccccc2)c(Cl)c1`, the T/C under setting [9] was 95 % of control, the T/C under setting [10] is 102 % of control and the T/C under setting [11] was 95 % of control.

In the case of `Cc1cc(Cl)c(Cl)cc1NC(=O)c1ccccc1Cl`, the T/C is 97 % of control under setting [5]; 97 % of control under setting [7]; 94 % of control (dose: 400.0 mg/kg/injection, schedule: Q04DX002 (ip), vehicle: Klucel (hydroxypropylcellulose) (HPC)).

For `CCNC(c1ccccc1)C(O)c1ccccc1` (centres undefined), the T/C is 94 % of control under setting [4], 104 % of control under setting [12], 105 % of control under setting [5] and 102 % of control under setting [13].

Consider `O=C1c2ccccc2C(=O)c2c(Nc3cccc(S(=O)(=O)N(CCO)CCO)c3)ccc(O)c21`, for which the T/C is, setting by setting: under setting [14], 97 % of control; under setting [15], 97 % of control; under setting [16], 97 % of control.

Consider `Cc1ccccc1NC1=C(Cl)C(=O)c2ccccc2C1=O`, for which the T/C (dose: 25.0 mg/kg/injection, schedule: Q04DX003 (ip), vehicle: saline) is 93 % of control; the T/C (dose: 50.0 mg/kg/injection, schedule: Q04DX003 (ip), vehicle: saline) was 93 % of control; the T/C under setting [3] is 93 % of control.

For `C=CC[N+]12CCCC1C(=C)CC2` (centres undefined), the T/C runs as follows: (dose: 12.5 mg/kg/injection, schedule: Q01DX009 (ip), vehicle: saline) 106 % of control; under setting [1], 100 % of control; under setting [2], 97 % of control and 106 % of control.

In the case of `Oc1ccc(Nc2ccnc3cc(Cl)ccc23)cc1CN(CCCl)CCCl`, the T/C is 109 % of control (dose: 5.0 mg/kg/injection, schedule: Q01DX001 (ip), vehicle: saline) and 109 % of control (dose: 10.0 mg/kg/injection, schedule: Q01DX001 (ip), vehicle: saline).

As to `O=C(O)c1cc(N=Nc2ccccc2C(=O)O)ccc1O`, the T/C runs as follows: (dose: 100.0 mg/kg/injection, schedule: Q04DX003 (ip), vehicle: Klucel (hydroxypropylcellulose) (HPC)) 92 % of control; (dose: 200.0 mg/kg/injection, schedule: Q04DX003 (ip), vehicle: Klucel (hydroxypropylcellulose) (HPC)) 94 % of control; (dose: 400.0 mg/kg/injection, schedule: Q04DX003 (ip), vehicle: Klucel (hydroxypropylcellulose) (HPC)) 112 % of control.

As for `ON=C1CCCCCCC1`, the T/C runs as follows: (dose: 12.5 mg/kg/injection, schedule: Q04DX002 (ip), vehicle: Klucel (hydroxypropylcellulose) (HPC)) 105 % of control; (dose: 25.0 mg/kg/injection, schedule: Q04DX002 (ip), vehicle: Klucel (hydroxypropylcellulose) (HPC)) 96 % of control; under setting [4], 101 % of control.

Turning to `CC(C)(C)N(N)Cc1ccccc1`, the T/C is, setting by setting: under setting [3], 106 % of control; under setting [6], 95 % of control; under setting [8], 104 % of control.

In the case of `N/C(=N\OC(=O)Nc1ccc(Cl)cc1)C(Cl)(Cl)Cl`, the T/C was 94 % of control under setting [12] and 90 % of control under setting [13].

Take `BrCC(CCCc1ccccc1)CCc1ccccc1` (centres undefined): the T/C by setting is: (dose: 100.0 mg/kg/injection, schedule: Q04DX002 (ip), vehicle: saline with Tween-80) 93 % of control; (dose: 200.0 mg/kg/injection, schedule: Q04DX002 (ip), vehicle: saline with Tween-80) 90 % of control; (dose: 400.0 mg/kg/injection, schedule: Q04DX002 (ip), vehicle: saline with Tween-80) 101 % of control.

Consider `Cc1ccc(NC(=O)Nc2ccc(C)c(NC(=O)Nc3ccc(C)c(Cl)c3)c2)cc1Cl`, for which the T/C was 90 % of control under setting [14]; 88 % of control under setting [15]; 88 % of control (dose: 100.0 mg/kg/injection, schedule: Q04DX003 (ip), vehicle: saline with Tween-80); 94 % of control under setting [16].

On to `N#Cc1nccnc1C#N`, for which the T/C (dose: 25.0 mg/kg/injection, schedule: Q04DX002 (ip), vehicle: DMSO) was 96 % of control; the T/C (dose: 50.0 mg/kg/injection, schedule: Q04DX002 (ip), vehicle: DMSO) is 100 % of control; the T/C (dose: 100.0 mg/kg/injection, schedule: Q04DX002 (ip), vehicle: DMSO) is 100 % of control.

In the case of `O=C(Cc1ccccc1)Nc1cccc(Cl)c1`, the T/C was 100 % of control under setting [12], 86 % of control under setting [13] and 95 % of control under setting [17].

On to `CN1CCN(CCNc2ccc(CO)c3sc4ccccc4c(=O)c23)CC1`, for which the T/C is 100 % of control (dose: 31.25 mg/kg/injection, schedule: Q01DX009 (ip), vehicle: Klucel (hydroxypropylcellulose) (HPC)); 97 % of control (dose: 62.5 mg/kg/injection, schedule: Q01DX009 (ip), vehicle: Klucel (hydroxypropylcellulose) (HPC)); 105 % of control (dose: 125.0 mg/kg/injection, schedule: Q01DX009 (ip), vehicle: Klucel (hydroxypropylcellulose) (HPC)).

In the case of `O=C1OC(c2ccc([N+](=O)[O-])cc2)=N/C1=C\c1cc(Br)ccc1O`, the T/C under setting [12] is 91 % of control, the T/C under setting [13] was 96 % of control and the T/C under setting [17] is 93 % of control.
